In the NIST ThermoML archive (doi:10.1021/je060032n):
± gives the expanded uncertainty stated by the source.

Assay: xn = mol fraction of the nth substance listed
Conditions: 101 kPa, Liquid; for viscosity: Capillary tube (Ostwald / Ubbelohde) method

NCCNCCO [N-(2-aminoethyl)ethanolamine] + O
Conditions | mass density [kg/m3] | viscosity [mPa·s]
298.15 K, x1 = 0.05 | 1015.65 ± 0.25 | 2.45 ± 0.08
298.15 K, x1 = 0.07 | 1022.28 ± 0.25 | 3.87 ± 0.12
298.15 K, x1 = 0.0999 | 1030.85 ± 0.25 | 6.76 ± 0.22
298.15 K, x1 = 0.1992 | 1047.37 ± 0.28 | 30 ± 0.9
298.15 K, x1 = 0.3 | 1050.66 ± 0.31 | 70.9 ± 2.2
298.15 K, x1 = 0.3997 | 1048.18 ± 0.35 | 104 ± 3
298.15 K, x1 = 0.4991 | 1044.05 ± 0.38 | 121 ± 4
298.15 K, x1 = 0.599 | 1039.62 ± 0.41 | 124 ± 4
298.15 K, x1 = 0.6991 | 1035.48 ± 0.44 | 121 ± 4
298.15 K, x1 = 0.7997 | 1031.83 ± 0.48 | 116 ± 4
298.15 K, x1 = 0.9002 | 1028.28 ± 0.51 | 109 ± 4
298.15 K, x1 = 1 | 1025.28 ± 0.55 | 98.6 ± 3.2
303.15 K, x1 = 0.05 | 1013.65 ± 0.25 | 2.16 ± 0.07
303.15 K, x1 = 0.07 | 1020.01 ± 0.25 | 3.24 ± 0.1
303.15 K, x1 = 0.0999 | 1028.24 ± 0.24 | 5.5 ± 0.18
303.15 K, x1 = 0.1992 | 1044.02 ± 0.28 | 22.6 ± 0.7
303.15 K, x1 = 0.3 | 1047.05 ± 0.31 | 50.4 ± 1.5
303.15 K, x1 = 0.3997 | 1044.5 ± 0.34 | 72.8 ± 2.2
303.15 K, x1 = 0.4991 | 1040.33 ± 0.37 | 83.9 ± 2.6
303.15 K, x1 = 0.599 | 1035.89 ± 0.4 | 87 ± 2.7
303.15 K, x1 = 0.6991 | 1031.74 ± 0.44 | 84.8 ± 2.7
303.15 K, x1 = 0.7997 | 1028.11 ± 0.47 | 82.5 ± 2.6
303.15 K, x1 = 0.9002 | 1024.57 ± 0.51 | 78.1 ± 2.4
303.15 K, x1 = 1 | 1021.53 ± 0.55 | 70.5 ± 2.2
313.15 K, x1 = 0.05 | 1009.22 ± 0.24 | 1.63 ± 0.05
313.15 K, x1 = 0.07 | 1015.13 ± 0.24 | 2.29 ± 0.07
313.15 K, x1 = 0.0999 | 1022.7 ± 0.24 | 3.83 ± 0.12
313.15 K, x1 = 0.1992 | 1037.13 ± 0.27 | 13.5 ± 0.4
313.15 K, x1 = 0.3 | 1039.7 ± 0.3 | 27.8 ± 0.8
313.15 K, x1 = 0.3997 | 1037.01 ± 0.34 | 38.9 ± 1.2
313.15 K, x1 = 0.4991 | 1032.79 ± 0.37 | 44.8 ± 1.4
313.15 K, x1 = 0.599 | 1028.36 ± 0.4 | 46.5 ± 1.4
313.15 K, x1 = 0.6991 | 1024.21 ± 0.43 | 45.7 ± 1.4
313.15 K, x1 = 0.7997 | 1020.57 ± 0.47 | 44.8 ± 1.4
313.15 K, x1 = 0.9002 | 1017.06 ± 0.5 | 44.4 ± 1.4
313.15 K, x1 = 1 | 1014.02 ± 0.54 | 39.4 ± 1.2
323.15 K, x1 = 0.05 | 1004.24 ± 0.23 | 1.26 ± 0.04
323.15 K, x1 = 0.07 | 1009.76 ± 0.23 | 1.75 ± 0.06
323.15 K, x1 = 0.0999 | 1016.8 ± 0.23 | 2.8 ± 0.09
323.15 K, x1 = 0.1992 | 1030.03 ± 0.27 | 8.7 ± 0.3
323.15 K, x1 = 0.3 | 1032.15 ± 0.3 | 16.5 ± 0.5
323.15 K, x1 = 0.3997 | 1029.37 ± 0.33 | 22.5 ± 0.7
323.15 K, x1 = 0.4991 | 1025.13 ± 0.36 | 25.6 ± 0.8
323.15 K, x1 = 0.599 | 1020.71 ± 0.39 | 26.7 ± 0.8
323.15 K, x1 = 0.6991 | 1016.59 ± 0.43 | 26.4 ± 0.8
323.15 K, x1 = 0.7997 | 1012.96 ± 0.46 | 26 ± 0.8
323.15 K, x1 = 0.9002 | 1009.48 ± 0.5 | 26 ± 0.8
323.15 K, x1 = 1 | 1006.44 ± 0.53 | 23.4 ± 0.7
333.15 K, x1 = 0.05 | 998.75 ± 0.23 | 1.01 ± 0.03
333.15 K, x1 = 0.07 | 1003.89 ± 0.22 | 1.38 ± 0.04
333.15 K, x1 = 0.0999 | 1010.53 ± 0.22 | 2.05 ± 0.06
333.15 K, x1 = 0.1992 | 1022.69 ± 0.26 | 5.9 ± 0.2
333.15 K, x1 = 0.3 | 1024.44 ± 0.29 | 10.5 ± 0.3
333.15 K, x1 = 0.3997 | 1021.57 ± 0.32 | 13.8 ± 0.4
333.15 K, x1 = 0.4991 | 1017.35 ± 0.35 | 15.8 ± 0.5
333.15 K, x1 = 0.599 | 1012.96 ± 0.39 | 16.5 ± 0.5
333.15 K, x1 = 0.6991 | 1008.88 ± 0.42 | 16.5 ± 0.5
333.15 K, x1 = 0.7997 | 1005.3 ± 0.46 | 16.4 ± 0.5
333.15 K, x1 = 0.9002 | 1001.84 ± 0.49 | 16.5 ± 0.5
333.15 K, x1 = 1 | 998.83 ± 0.53 | 14.8 ± 0.5
343.15 K, x1 = 0.05 | 992.77 ± 0.23 | 0.839 ± 0.026
343.15 K, x1 = 0.07 | 997.34 ± 0.22 | 1.11 ± 0.03
343.15 K, x1 = 0.0999 | 1003.89 ± 0.22 | 1.6 ± 0.05
343.15 K, x1 = 0.1992 | 1015.09 ± 0.26 | 4.2 ± 0.1
343.15 K, x1 = 0.3 | 1016.53 ± 0.29 | 7 ± 0.2
343.15 K, x1 = 0.3997 | 1013.6 ± 0.32 | 9.1 ± 0.3
343.15 K, x1 = 0.4991 | 1009.42 ± 0.35 | 10.3 ± 0.3
343.15 K, x1 = 0.599 | 1005.1 ± 0.38 | 10.8 ± 0.3
343.15 K, x1 = 0.6991 | 1001.06 ± 0.41 | 10.8 ± 0.3
343.15 K, x1 = 0.7997 | 997.54 ± 0.45 | 10.8 ± 0.3
343.15 K, x1 = 0.9002 | 994.11 ± 0.49 | 10.7 ± 0.3
343.15 K, x1 = 1 | 991.15 ± 0.53 | 10.1 ± 0.3
